What all share (experiment): biochemical
In one experiment the target is KIT-autoinhibited (Homo sapiens, UniProt P10721). As to conditions: read-out: CPT-1-70-1 (1uM) % control.
The next experiment addresses ALK(L1196M) (Homo sapiens, UniProt Q9UM73, L1196M). As to conditions: read-out: CPT-1-70-1 (1uM) % control.
For a further experiment, the target named is EPHB1 (Homo sapiens, UniProt P54762). Conditions: read-out: CPT-1-70-1 (1uM) % control.
Another experiment has as its target EPHA1 (Homo sapiens, UniProt P21709). Conditions: read-out: CPT-1-70-1 (1uM) % control.
In the next experiment the target is EPHA7 (Homo sapiens, UniProt Q15375). Conditions: read-out: CPT-1-70-1 (1uM) % control.
The target in a further experiment is ALK(C1156Y) (Homo sapiens, UniProt Q9UM73, C1156Y). Conditions: read-out: CPT-1-70-1 (1uM) % control.
A further experiment has as its target EPHA5 (Homo sapiens, UniProt P54756). Conditions: read-out: CPT-1-70-1 (1uM) % control.
In the next experiment the target is ERK8 (Homo sapiens, UniProt Q8TD08). As to conditions: read-out: CPT-1-70-1 (1uM) % control.
A further experiment concerns the target EPHA2 (Homo sapiens, UniProt P29317). Conditions: read-out: CPT-1-70-1 (1uM) % control.
The next experiment deals with EPHA3 (Homo sapiens, UniProt P29320). Conditions: read-out: CPT-1-70-1 (1uM) % control.
Another experiment concerns the target EPHA8 (Homo sapiens, UniProt P29322). Conditions: read-out: CPT-1-70-1 (1uM) % control.
Another experiment concerns the target EPHA4 (Homo sapiens, UniProt P54764). As to conditions: read-out: CPT-1-70-1 (1uM) % control.
In another experiment the target is ERK5 (Homo sapiens, UniProt Q13164). Conditions: read-out: CPT-1-70-1 (1uM) % control.
The next experiment concerns the target ERBB2 (Homo sapiens, UniProt P04626). As to conditions: read-out: CPT-1-70-1 (1uM) % control.
The target of the next experiment is EPHB3 (Homo sapiens, UniProt P54753). As to conditions: read-out: CPT-1-70-1 (1uM) % control.
A further experiment deals with EPHA6 (Homo sapiens, UniProt Q9UF33). As to conditions: read-out: CPT-1-70-1 (1uM) % control.
The next experiment deals with BUB1 (Homo sapiens, UniProt O43683). Conditions: read-out: CPT-1-70-1 (1uM) % control.
For a further experiment, the target named is EPHB2 (Homo sapiens, UniProt P29323). As to conditions: read-out: CPT-1-70-1 (1uM) % control.
A further experiment deals with EGFR(T790M) (Homo sapiens, UniProt P00533, T790M). Conditions: read-out: CPT-1-70-1 (1uM) % control.
Chain of EGFR(T790M) (P00533 whole entry T790M): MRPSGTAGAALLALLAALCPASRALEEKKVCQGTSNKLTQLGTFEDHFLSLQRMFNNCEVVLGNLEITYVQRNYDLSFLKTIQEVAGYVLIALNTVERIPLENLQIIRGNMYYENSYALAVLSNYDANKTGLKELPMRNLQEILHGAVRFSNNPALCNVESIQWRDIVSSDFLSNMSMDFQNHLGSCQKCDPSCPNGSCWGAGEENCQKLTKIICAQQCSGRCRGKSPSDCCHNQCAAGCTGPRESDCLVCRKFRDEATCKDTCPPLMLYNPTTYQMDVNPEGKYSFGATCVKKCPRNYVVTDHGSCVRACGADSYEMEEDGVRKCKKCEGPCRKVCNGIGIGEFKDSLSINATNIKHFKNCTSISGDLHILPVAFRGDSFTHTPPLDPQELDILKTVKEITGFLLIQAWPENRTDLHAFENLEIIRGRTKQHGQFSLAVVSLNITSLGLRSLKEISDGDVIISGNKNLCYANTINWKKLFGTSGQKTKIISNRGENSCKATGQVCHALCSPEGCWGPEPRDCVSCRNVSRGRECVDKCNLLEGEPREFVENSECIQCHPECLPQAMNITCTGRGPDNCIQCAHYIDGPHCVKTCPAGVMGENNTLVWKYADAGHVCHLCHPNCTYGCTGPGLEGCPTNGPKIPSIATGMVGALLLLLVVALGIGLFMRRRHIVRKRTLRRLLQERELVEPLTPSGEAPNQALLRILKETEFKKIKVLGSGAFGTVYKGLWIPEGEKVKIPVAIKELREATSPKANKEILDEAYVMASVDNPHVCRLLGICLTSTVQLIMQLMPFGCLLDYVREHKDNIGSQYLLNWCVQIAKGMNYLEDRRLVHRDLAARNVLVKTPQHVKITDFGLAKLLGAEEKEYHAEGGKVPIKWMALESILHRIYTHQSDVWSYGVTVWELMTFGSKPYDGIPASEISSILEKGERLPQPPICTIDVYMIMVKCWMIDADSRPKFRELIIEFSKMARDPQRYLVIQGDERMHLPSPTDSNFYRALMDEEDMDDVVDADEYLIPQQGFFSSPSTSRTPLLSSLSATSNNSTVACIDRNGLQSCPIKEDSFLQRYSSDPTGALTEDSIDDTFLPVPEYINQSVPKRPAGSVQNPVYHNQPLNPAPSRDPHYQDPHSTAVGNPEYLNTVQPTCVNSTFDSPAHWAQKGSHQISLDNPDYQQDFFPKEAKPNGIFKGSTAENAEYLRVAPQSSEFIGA
Another experiment deals with ERBB4 (Homo sapiens, UniProt Q15303). Conditions: read-out: CPT-1-70-1 (1uM) % control.
Chain of ERBB4 (Q15303 whole entry): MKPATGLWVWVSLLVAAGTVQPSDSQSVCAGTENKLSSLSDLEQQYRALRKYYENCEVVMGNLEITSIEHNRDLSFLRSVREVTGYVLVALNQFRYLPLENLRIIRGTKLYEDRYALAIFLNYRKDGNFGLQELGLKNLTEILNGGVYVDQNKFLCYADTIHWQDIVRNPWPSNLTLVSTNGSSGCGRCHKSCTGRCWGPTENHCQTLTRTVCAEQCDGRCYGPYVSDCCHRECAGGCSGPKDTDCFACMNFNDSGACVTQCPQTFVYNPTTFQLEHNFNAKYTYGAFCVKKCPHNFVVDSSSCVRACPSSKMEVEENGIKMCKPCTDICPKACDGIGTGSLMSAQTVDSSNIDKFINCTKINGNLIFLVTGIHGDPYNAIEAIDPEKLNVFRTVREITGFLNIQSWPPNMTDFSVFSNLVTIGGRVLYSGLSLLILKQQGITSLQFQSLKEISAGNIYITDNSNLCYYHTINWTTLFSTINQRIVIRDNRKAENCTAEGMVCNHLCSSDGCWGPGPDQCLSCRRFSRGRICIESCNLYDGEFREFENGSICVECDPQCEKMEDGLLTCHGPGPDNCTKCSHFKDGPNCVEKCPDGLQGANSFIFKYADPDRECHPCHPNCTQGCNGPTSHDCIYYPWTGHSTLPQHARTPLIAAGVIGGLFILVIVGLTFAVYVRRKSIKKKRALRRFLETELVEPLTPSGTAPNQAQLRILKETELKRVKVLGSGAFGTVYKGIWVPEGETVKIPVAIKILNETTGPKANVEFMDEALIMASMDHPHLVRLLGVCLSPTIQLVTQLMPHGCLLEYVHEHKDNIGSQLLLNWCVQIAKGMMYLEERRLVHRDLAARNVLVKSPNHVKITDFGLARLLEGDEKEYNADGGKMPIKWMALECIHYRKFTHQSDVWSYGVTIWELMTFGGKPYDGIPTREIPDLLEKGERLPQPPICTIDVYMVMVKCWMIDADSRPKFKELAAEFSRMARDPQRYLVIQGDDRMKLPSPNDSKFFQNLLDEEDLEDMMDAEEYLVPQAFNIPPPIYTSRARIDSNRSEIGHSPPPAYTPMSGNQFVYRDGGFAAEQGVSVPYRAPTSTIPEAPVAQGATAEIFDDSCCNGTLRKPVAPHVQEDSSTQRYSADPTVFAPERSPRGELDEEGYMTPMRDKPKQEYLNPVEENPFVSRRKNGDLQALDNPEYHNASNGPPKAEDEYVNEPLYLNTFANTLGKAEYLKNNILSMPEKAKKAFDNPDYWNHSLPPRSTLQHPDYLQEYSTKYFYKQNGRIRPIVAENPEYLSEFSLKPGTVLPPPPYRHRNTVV
The target in a further experiment is CSF1R-autoinhibited (Homo sapiens, UniProt P07333). As to conditions: read-out: CPT-1-70-1 (1uM) % control.
Experiment [1] concerns the target ABL1(F317L)-nonphosphorylated (Homo sapiens, UniProt P00519, F317L).
The next experiment addresses EGFR(L858R,T790M) (Homo sapiens, UniProt P00533, L858R/T790M). As to conditions: read-out: CPT-1-70-1 (1uM) % control.
The target of the next experiment is PFCDPK1(P.falciparum) (Plasmodium falciparum, UniProt P62344). Conditions: read-out: CPT-1-70-1 (1μM) % control.
The target in the next experiment is PFPK5(P.falciparum) (Plasmodium falciparum, UniProt P61075). As to conditions: read-out: CPT-1-70-1 (1μM) % control.
Chain of PFPK5(P.falciparum) (P61075 whole entry): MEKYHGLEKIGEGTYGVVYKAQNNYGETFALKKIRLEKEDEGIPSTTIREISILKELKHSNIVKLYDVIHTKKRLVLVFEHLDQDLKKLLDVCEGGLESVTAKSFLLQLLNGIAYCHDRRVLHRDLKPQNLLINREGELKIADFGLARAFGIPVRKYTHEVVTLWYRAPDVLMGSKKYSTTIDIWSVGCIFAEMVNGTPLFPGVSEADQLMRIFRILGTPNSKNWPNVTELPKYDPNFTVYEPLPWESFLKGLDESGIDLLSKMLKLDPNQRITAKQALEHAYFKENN
Another experiment addresses PKNB(M.tuberculosis) (Mycobacterium tuberculosis, UniProt P9WI81). Conditions: read-out: CPT-1-70-1 (1μM) % control.
Experiment [2] addresses ABL1(E255K)-phosphorylated (Homo sapiens, UniProt P00519, E255K). Conditions: read-out: CPT-1-70-1 (1μM) % control.
In a further experiment the target is KIT(V559D,T670I) (Homo sapiens, UniProt P10721, T670I/V559D). As to conditions: read-out: CPT-1-70-1 (1uM) % control.

Where two headings read alike, the source gives them in different places.

Chain of ABL1(F317L)-nonphosphorylated (P00519 whole entry F317L): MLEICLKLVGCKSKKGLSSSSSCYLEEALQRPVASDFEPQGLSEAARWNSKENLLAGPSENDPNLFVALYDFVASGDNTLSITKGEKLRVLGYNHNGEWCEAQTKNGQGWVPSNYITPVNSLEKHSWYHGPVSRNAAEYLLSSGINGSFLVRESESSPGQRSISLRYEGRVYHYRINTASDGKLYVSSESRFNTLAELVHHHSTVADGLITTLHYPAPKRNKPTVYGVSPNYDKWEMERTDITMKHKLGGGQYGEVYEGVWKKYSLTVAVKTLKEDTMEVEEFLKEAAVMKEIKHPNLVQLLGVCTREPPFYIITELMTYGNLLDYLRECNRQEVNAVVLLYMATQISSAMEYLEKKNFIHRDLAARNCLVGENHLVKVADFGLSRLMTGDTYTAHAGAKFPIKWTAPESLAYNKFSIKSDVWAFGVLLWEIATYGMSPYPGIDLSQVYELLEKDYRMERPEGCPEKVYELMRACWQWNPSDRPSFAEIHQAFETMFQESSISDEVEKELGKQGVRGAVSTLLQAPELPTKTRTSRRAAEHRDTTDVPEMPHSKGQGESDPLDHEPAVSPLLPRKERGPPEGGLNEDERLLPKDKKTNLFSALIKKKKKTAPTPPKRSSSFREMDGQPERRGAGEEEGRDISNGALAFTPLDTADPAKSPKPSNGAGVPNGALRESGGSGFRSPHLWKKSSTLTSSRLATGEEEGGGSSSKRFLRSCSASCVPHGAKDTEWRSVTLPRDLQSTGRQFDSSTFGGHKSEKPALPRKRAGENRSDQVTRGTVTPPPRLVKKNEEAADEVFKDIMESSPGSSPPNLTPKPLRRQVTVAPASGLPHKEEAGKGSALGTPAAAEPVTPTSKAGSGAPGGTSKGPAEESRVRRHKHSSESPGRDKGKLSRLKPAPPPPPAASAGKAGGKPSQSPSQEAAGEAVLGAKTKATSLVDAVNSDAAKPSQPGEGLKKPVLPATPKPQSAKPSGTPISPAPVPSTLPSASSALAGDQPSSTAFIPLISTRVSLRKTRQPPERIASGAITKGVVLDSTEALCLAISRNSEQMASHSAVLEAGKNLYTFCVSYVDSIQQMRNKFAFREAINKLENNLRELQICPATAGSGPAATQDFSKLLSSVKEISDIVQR
Chain of EPHA8 (P29322 whole entry): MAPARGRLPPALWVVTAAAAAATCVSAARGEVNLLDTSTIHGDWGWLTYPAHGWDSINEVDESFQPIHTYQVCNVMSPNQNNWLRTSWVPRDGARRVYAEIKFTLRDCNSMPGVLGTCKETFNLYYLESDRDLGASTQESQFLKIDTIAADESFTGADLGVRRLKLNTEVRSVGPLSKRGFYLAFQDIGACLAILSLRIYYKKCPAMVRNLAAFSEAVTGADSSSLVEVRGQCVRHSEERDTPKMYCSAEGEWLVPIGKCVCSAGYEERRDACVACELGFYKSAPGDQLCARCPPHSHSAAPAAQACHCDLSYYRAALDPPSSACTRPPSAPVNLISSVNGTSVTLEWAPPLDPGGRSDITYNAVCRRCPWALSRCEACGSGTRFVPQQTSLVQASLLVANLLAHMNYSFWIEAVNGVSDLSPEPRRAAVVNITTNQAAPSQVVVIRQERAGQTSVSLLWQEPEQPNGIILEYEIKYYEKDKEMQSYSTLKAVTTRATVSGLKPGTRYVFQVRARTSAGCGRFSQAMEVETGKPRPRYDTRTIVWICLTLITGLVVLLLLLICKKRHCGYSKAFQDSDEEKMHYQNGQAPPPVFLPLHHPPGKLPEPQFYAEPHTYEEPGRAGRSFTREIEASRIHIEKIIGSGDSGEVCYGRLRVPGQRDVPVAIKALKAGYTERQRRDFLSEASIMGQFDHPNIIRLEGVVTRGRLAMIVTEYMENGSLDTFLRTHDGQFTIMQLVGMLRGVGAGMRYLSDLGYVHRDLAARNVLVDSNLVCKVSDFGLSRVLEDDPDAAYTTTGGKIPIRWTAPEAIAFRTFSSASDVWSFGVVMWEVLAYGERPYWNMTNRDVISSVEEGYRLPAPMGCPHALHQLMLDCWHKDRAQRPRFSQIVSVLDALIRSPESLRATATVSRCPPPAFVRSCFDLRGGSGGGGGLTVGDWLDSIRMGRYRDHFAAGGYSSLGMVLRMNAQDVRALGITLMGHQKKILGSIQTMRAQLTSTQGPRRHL
Chain of ABL1(E255K)-phosphorylated (P00519 whole entry E255K): as the sequence (P00519 whole entry F317L) above, with E255K, L317F counted along it

With `CN1CCN(c2ccc(Nc3nc(Oc4ccc(NC(=O)CCl)cc4)c4cc[nH]c4n3)cc2)CC1` [CPT1-70-1], the remaining activity at 1 µM at KIT-autoinhibited is 39%; on ALK(L1196M), 100%; at EPHB1 it was 84%; on EPHA1, 79%; on EPHA7, 62%; on ALK(C1156Y), 52%. Moreover, the remaining activity at 1 µM amounted to 100% on EPHA5; 86% at ERK8; 96% at EPHA2; 100% at EPHA3; 53% on EPHA8; 94% at EPHA4. Further, the remaining activity at 1 µM on ERK5 stood at 87%; on ERBB2, 57%; at EPHB3, 100%; on EPHA6, 100%; on BUB1 it was 85%; at EPHB2, 100%. Further, the remaining activity at 1 µM at EGFR(T790M) is 0.8%; at ERBB4, 4.6%; at CSF1R-autoinhibited, 1.4%; in [1] (read-out: CPT-1-70-1 (1uM) % control) it was 100%; on EGFR(L858R,T790M), 0.35%; on PFCDPK1(P.falciparum), 100%. Moreover, the remaining activity at 1 µM at PFPK5(P.falciparum) was 100%; at PKNB(M.tuberculosis), 58%; in experiment [2], 90%; at KIT(V559D,T670I) it was 28%.
For the compound `CCN1CCN(Cc2ccc(NC(=O)c3ccc(C)c(CCc4cnc5[nH]ccc5c4OC)c3)cc2C(F)(F)F)CC1` [HYJ-2-002-1], the remaining activity at 1 µM in [1] (read-out: HYJ-2-002-1 (1uM) % control) is 0%.

Source of the values: doi:10.1101/2020.06.11.145995v1 (biorxiv, 2020).
